Measurements: PMC4014147 (Environmental Science & Technology, 2014)

Experiments:
[1] = target: T1, mERβ1 (Oryzias latipes, UniProt A0ACM8PZQ7); assay: Competitive ligand binding assay; set-up: species or system medaka; conditions: for RBA (%) mERβ1: ratio of IC50 of E2β to IC50 of competitor
T1 sequence (A0ACM8PZQ7 1-562): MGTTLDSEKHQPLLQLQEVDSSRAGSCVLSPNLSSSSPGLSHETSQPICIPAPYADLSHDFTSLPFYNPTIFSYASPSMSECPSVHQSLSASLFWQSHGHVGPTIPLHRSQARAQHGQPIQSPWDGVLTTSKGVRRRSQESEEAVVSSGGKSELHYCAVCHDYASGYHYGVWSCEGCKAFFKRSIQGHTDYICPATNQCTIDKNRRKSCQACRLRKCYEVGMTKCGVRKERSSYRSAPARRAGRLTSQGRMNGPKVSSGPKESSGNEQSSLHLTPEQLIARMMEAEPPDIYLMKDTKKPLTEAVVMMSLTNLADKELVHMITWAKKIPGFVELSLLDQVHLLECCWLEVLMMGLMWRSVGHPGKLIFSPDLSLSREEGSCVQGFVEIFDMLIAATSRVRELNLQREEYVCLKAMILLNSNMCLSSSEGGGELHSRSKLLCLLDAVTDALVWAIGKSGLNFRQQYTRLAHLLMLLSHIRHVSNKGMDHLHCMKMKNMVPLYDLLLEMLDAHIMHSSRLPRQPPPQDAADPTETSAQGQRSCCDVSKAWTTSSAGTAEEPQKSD

[2] = target: T2, mERβ2 (Oryzias latipes, UniProt B1B6T4); assay: Competitive ligand binding assay; set-up: species or system medaka; conditions: for RBA (%) mERβ2: ratio of IC50 of E2β to IC50 of competitor
T2 sequence (B1B6T4 1-542): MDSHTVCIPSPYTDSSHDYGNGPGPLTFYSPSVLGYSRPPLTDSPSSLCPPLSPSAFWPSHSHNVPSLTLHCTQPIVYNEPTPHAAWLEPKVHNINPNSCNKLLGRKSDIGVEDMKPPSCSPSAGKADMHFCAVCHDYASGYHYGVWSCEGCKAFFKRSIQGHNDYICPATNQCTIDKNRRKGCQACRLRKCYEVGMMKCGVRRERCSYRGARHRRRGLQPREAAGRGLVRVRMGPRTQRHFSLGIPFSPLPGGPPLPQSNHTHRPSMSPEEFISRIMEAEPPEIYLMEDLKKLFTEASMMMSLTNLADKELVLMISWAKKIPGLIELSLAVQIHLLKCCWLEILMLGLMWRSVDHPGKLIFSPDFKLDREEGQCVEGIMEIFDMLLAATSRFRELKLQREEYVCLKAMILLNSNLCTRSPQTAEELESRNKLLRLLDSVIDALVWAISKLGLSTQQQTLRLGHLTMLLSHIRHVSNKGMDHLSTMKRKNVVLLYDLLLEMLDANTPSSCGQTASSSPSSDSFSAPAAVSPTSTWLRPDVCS

[3] = tested on: mERα, mERβ1, and mERβ2; assay: Ligand binding assays, comparison of affinity across mER subtypes; set-up: species or system medaka; conditions: from IC50 of competitive binding
[4] = tested on: hepatic gene expression in male Japanese medaka; assay: Medaka 7-day waterborne exposure, hepatic gene expression by qPCR; type: in vivo, Japanese medaka (Oryzias latipes)
[5] = tested on: hERα and hERβ; assay: T47D-KBluc estrogen screening assay, luciferase reporter; conditions: YES-calibrated stock solutions
[6] = target: T3, mERα (Oryzias latipes, UniProt P50241); assay: biochemical; type: binding, medaka
T3 sequence (P50241 1-620): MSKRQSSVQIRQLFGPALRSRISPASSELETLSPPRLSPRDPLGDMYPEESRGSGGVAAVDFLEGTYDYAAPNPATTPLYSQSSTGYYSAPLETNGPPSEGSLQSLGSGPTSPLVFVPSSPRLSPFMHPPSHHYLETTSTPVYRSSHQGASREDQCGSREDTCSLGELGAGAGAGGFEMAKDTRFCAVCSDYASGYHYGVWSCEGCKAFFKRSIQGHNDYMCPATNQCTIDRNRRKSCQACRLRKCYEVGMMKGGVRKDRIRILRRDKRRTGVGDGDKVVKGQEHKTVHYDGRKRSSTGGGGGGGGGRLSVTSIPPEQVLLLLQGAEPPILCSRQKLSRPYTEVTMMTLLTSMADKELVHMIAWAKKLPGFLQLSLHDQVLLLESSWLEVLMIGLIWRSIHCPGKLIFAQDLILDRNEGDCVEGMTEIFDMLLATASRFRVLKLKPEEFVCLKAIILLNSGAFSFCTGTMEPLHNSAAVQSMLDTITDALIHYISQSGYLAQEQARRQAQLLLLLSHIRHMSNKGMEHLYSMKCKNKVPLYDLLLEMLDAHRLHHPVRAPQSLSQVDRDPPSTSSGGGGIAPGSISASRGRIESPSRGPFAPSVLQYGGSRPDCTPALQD

[7] = male medaka liver, 7 days, YES-derived EEQ 0.64 nM, relative to negative control
[8] = liver of E2β-exposed male medaka, mERα expression as calibrator

SMILES | IC50 [1] [nM] | RBA (%) mERβ1 [1] [%] | IC50 [2] [nM] | RBA (%) mERβ2 [2] [%] | higher affinity for mERβ1 versus mERβ2 [3] [fold] | mERα induction [4, 7] [fold] | more potent in the T47D-KBluc versus the YES [5] | mERα expression above mERβ1 [4, 8] [fold] | mERα expression above mERβ2 [4, 8] [fold] | Chg-H gene induction [4, 7] | Chg-Hm gene induction [4, 7] | Chg-L gene induction [4, 7] [fold] | Vtg-1 gene induction [4, 7] | Vtg-2 gene induction [4, 7] | IC50 [6] [nM] | RBA (%) mERα ([6]; ratio of IC50 of E2β to IC50 of competitor) [%] | potency less in the T47D-KBluc versus the YES [5] [fold]
C[C@]12CC[C@@H]3c4ccc(O)cc4CC[C@H]3[C@@H]1C[C@@H](O)[C@@H]2O [E3, estriol] | 18.1 | 10.0 | 34.2 | 6.1 | 1.9 | 67 | approximately 10 fold |  |  |  |  |  |  |  |  |  | 
C[C@]12CC[C@@H]3c4ccc(O)cc4CC[C@H]3[C@@H]1CC[C@@H]2O [E2β, 17β-estradiol] | 1.8 | 100.0 | 2.1 | 100.0 |  | 72 |  | 23 | 5 | 12,730 fold | 3,796 fold | 324 | 27,004 fold | 73,735 fold |  |  | 
C[C@]12CC[C@@H]3c4ccc(O)cc4CC[C@H]3[C@@H]1CCC2=O [E1, estrone] | 14.4 | 12.6 | 14.4 | 14.6 |  | 56 | slightly more potent |  |  |  |  |  |  |  | 8.4 | 36.7 | 
C[C@]12CC[C@@H]3c4ccc(O)cc4CC[C@H]3[C@@H]1CC[C@H]2O [E2α, 17α-estradiol] | 18.8 | 9.6 | 31.1 | 6.8 |  | 24 |  |  |  |  |  |  |  |  |  |  | 3.3
